The supplement of paper PMC11208160

Test: recombinant UMI read abundance after kanamycin selection (control-corrected) (log10(CPM+1)); higher = more efficient recombination; extreme values may be limits of the assay; sequences stand for … in AGTGCAGAGAAAATCGGCCAGTTTTCTCTGCCTGCAGTCCGCATGCCGTGGGACCCCTTGGGTTCTAACCTGTTGCCTAGATTTATGCAGCGGACTGCCTTTCTCCCAAAGTGATAAACCGG…AGGTTGGTTTCACT; site = the 11-nt donor
How it was run: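 In a pooled Escherichia coli screen for the IS621 bridge recombinase, donor and donor-binding-loop pairs were each placed with a 12-nt UMI on a plasmid bearing a promoterless kanamycin gene. This library was co-electroporated with a target plasmid encoding a fixed target and T7-inducible recombinase, and cells were plated either on IPTG (0.07 mM) plus kanamycin or without selection, in two replicates each. Recombinant UMIs were PCR-amplified across the donor–target junction and sequenced, and counts were converted to CPM, averaged over replicates, scaled by control-derived factors and reported as log10(CPM+1).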
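Further: IS621 bridge recombinase in Escherichia coli cells against a fixed T5 target plasmid.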

Sequence	recombinant UMI read abundance (log10)
GACAACCCATGGACCGGTTTTCCCGGTAATCCGTATTTGGT (site GACAATCCTAC)	0
GACAAGCCATGGACCGGTTTTCCCGGTAATCCGTATTTGGT (site GACAAACCTAC)	0
GACAAGCCATGGACCGGTTTTCCCGGTAATCCGTATTTGGT (site GACAACCCTAC)	0.00727
GACAAGCCATGGACCGGTTTTCCCGGTAATCCGTATTTGGT (site GACAAGCCTAC)	0
GACAAGCCATGGACCGGTTTTCCCGGTAATCCGTATTTGGT (site GACAATCCTAC)	0
GACAATTCATGGACCGGTTTTCCCGGTAATCCGTATTTGAC (site GACAATTCTGT)	0
GACACATCATGGACCGGTTTTCCCGGTAATCCGTATTTGGT (site GACACATCTAC)	2.25
GACATACCATGGACCGGTTTTCCCGGTAATCCGTATTTGGT (site GACAAACCTAC)	0
GACATACCATGGACCGGTTTTCCCGGTAATCCGTATTTGGT (site GACACACCTAC)	0.01
GACATACCATGGACCGGTTTTCCCGGTAATCCGTATTTGGT (site GACAGACCTAC)	0
GACATACCATGGACCGGTTTTCCCGGTAATCCGTATTTGGT (site GACATACCTAC)	0.0102
GACCCGCCATGGACCGGTTTTCCCGGTAATCCGTATTTGAG (site GACCCGCCTCT)	0.0157
GACCCGCCATGGACCGGTTTTCCCGGTAATCCGTATTTGTG (site GACCCGCCTCA)	0.0171
GACCCGTCATGGACCGGTTTTCCCGGTAATCCGTATTTGTG (site GACCCGTCTCA)	1.63
GACCGAGCATGGACCGGTTTTCCCGGTAATCCGTATTTGTA (site GACCGAGCTTA)	1.19
GACCTAGCATGGACCGGTTTTCCCGGTAATCCGTATTTGAA (site GACCTAGCTTT)	0.349
GACCTCACATGGACCGGTTTTCCCGGTAATCCGTATTTGAT (site GAACTCACTAT)	0.0127
GACCTCACATGGACCGGTTTTCCCGGTAATCCGTATTTGAT (site GACCTCACTAT)	0.626
GACCTCACATGGACCGGTTTTCCCGGTAATCCGTATTTGAT (site GAGCTCACTAT)	0
GACCTCACATGGACCGGTTTTCCCGGTAATCCGTATTTGAT (site GATCTCACTAT)	0.00913
GACCTCCCATGGACCGGTTTTCCCGGTAATCCGTATTTGTG (site GACCTCCCTCA)	0.00533
GACGACGCATGGACCGGTTTTCCCGGTAATCCGTATTTGGA (site GACGACGCTTC)	2.48
GACGTAACATGGACCGGTTTTCCCGGTAATCCGTATTTGTA (site GACGTAACTTA)	2.19
GACTAGTCATGGACCGGTTTTCCCGGTAATCCGTATTTGTG (site GACTAGTCTCA)	1.64
GACTCTTCATGGACCGGTTTTCCCGGTAATCCGTATTTGGC (site GACTCTTCTGC)	1.04

Sequence	recombinant UMI read abundance (log10)
GACTGGACATGGACCGGTTTTCCCGGTAATCCGTATTTGGT (site GACTGGACTAC)	0.826
GACTTTGCATGGACCGGTTTTCCCGGTAATCCGTATTTGCA (site GACTTTGCTTG)	0
GAGATCACATGGACCGGTTTTCCCGGTAATCCGTATTTGAT (site GAGATCACTAT)	2.13
GAGATCACATGGACCGGTTTTCCCGGTAATCCGTATTTGAT (site GAGCTCACTAT)	0.00919
GAGATCACATGGACCGGTTTTCCCGGTAATCCGTATTTGAT (site GAGGTCACTAT)	0.0122
GAGATCACATGGACCGGTTTTCCCGGTAATCCGTATTTGAT (site GAGTTCACTAT)	0.113
GAGCAAGCATGGACCGGTTTTCCCGGTAATCCGTATTTGCA (site GAGCAAGCTTG)	2.68
GAGCAGACATGGACCGGTTTTCCCGGTAATCCGTATTTGTG (site GAGCAGACTCA)	1.25
GAGCCCACATGGACCGGTTTTCCCGGTAATCCGTATTTGAT (site GAGCACACTAT)	0
GAGCCCACATGGACCGGTTTTCCCGGTAATCCGTATTTGAT (site GAGCCCACTAT)	1.66
GAGCCCACATGGACCGGTTTTCCCGGTAATCCGTATTTGAT (site GAGCGCACTAT)	0.0147
GAGCCCACATGGACCGGTTTTCCCGGTAATCCGTATTTGAT (site GAGCTCACTAT)	0.00621
GAGCGCGCATGGACCGGTTTTCCCGGTAATCCGTATTTGCG (site GAGCGCGCTCG)	1.56
GAGCTCACATGGACCGGTTTTCCCGGTAATCCGTATTTGGT (site GAGCTCACTAA)	0.274
GAGCTCACATGGACCGGTTTTCCCGGTAATCCGTATTTGGT (site GAGCTCACTAC)	0.841
GAGCTCACATGGACCGGTTTTCCCGGTAATCCGTATTTGGT (site GAGCTCACTAG)	1.37
GAGCTCACATGGACCGGTTTTCCCGGTAATCCGTATTTGGT (site GAGCTCACTAT)	0.971
GAGCTCGCATGGACCGGTTTTCCCGGTAATCCGTATTTGAT (site GAGCTCACTAT)	1.7
GAGCTCGCATGGACCGGTTTTCCCGGTAATCCGTATTTGAT (site GAGCTCCCTAT)	0.626
GAGCTCGCATGGACCGGTTTTCCCGGTAATCCGTATTTGAT (site GAGCTCGCTAT)	2.26
GAGCTCGCATGGACCGGTTTTCCCGGTAATCCGTATTTGAT (site GAGCTCTCTAT)	1.37
GAGGAAACATGGACCGGTTTTCCCGGTAATCCGTATTTGCT (site GAGGAAACTAG)	0
GAGGAACCATGGACCGGTTTTCCCGGTAATCCGTATTTGGA (site GAGGAACCTTC)	0.00548
GAGGATGCATGGACCGGTTTTCCCGGTAATCCGTATTTGAA (site GAGGATGCTTT)	2.56
GAGGTAGCATGGACCGGTTTTCCCGGTAATCCGTATTTGAT (site GAGGTAGCTAT)	2.43

Sequence	recombinant UMI read abundance (log10)
GAGTAGCCATGGACCGGTTTTCCCGGTAATCCGTATTTGTC (site GAGTAGCCTGA)	0
GAGTGGACATGGACCGGTTTTCCCGGTAATCCGTATTTGAC (site GAATGGACTGT)	1.75
GAGTGGACATGGACCGGTTTTCCCGGTAATCCGTATTTGAC (site GACTGGACTGT)	0.208
GAGTGGACATGGACCGGTTTTCCCGGTAATCCGTATTTGAC (site GAGTGGACTGT)	2.6
GAGTGGACATGGACCGGTTTTCCCGGTAATCCGTATTTGAC (site GATTGGACTGT)	0
GATAAGCCATGGACCGGTTTTCCCGGTAATCCGTATTTGCC (site GATAAGCCTGG)	0
GATACGTCATGGACCGGTTTTCCCGGTAATCCGTATTTGTT (site GATACGTCTAA)	0.338
GATACGTCATGGACCGGTTTTCCCGGTAATCCGTATTTGTT (site GCTACGTCTAA)	0.00442
GATACGTCATGGACCGGTTTTCCCGGTAATCCGTATTTGTT (site GGTACGTCTAA)	0.0473
GATACGTCATGGACCGGTTTTCCCGGTAATCCGTATTTGTT (site GTTACGTCTAA)	0.0167
GATAGATCATGGACCGGTTTTCCCGGTAATCCGTATTTGAG (site GATAGATCTCT)	1.83
GATCATCCATGGACCGGTTTTCCCGGTAATCCGTATTTGCT (site GATAATCCTAG)	0
GATCATCCATGGACCGGTTTTCCCGGTAATCCGTATTTGCT (site GATCATCCTAG)	0.452
GATCATCCATGGACCGGTTTTCCCGGTAATCCGTATTTGCT (site GATGATCCTAG)	0
GATCATCCATGGACCGGTTTTCCCGGTAATCCGTATTTGCT (site GATTATCCTAG)	0
GATCCAACATGGACCGGTTTTCCCGGTAATCCGTATTTGTA (site GATCCAACTTA)	0.0155
GATCCAACATGGACCGGTTTTCCCGGTAATCCGTATTTGTA (site GCTCCAACTTA)	0.00727
GATCCAACATGGACCGGTTTTCCCGGTAATCCGTATTTGTA (site GGTCCAACTTA)	0.021
GATCCAACATGGACCGGTTTTCCCGGTAATCCGTATTTGTA (site GTTCCAACTTA)	0.0286
GATCCGTCATGGACCGGTTTTCCCGGTAATCCGTATTTGTA (site GATCCGTCTTA)	1.26
GATCGCTCATGGACCGGTTTTCCCGGTAATCCGTATTTGTT (site GATCGCTCTAA)	0.523
GATCTGCCATGGACCGGTTTTCCCGGTAATCCGTATTTGAA (site GATCTGCCTTT)	0.00302
GATGAAACATGGACCGGTTTTCCCGGTAATCCGTATTTGCC (site GATGAAACTGG)	1.72
GATGGGACATGGACCGGTTTTCCCGGTAATCCGTATTTGAC (site GATAGGACTGT)	1.69
GATGGGACATGGACCGGTTTTCCCGGTAATCCGTATTTGAC (site GATCGGACTGT)	0.285
